One experiment deals with hP2Y12R (Homo sapiens, UniProt Q9H244). Put plainly: radioligand displacement of [3H]AZ12464237. It is filed as binding. Background: Loss of bound radioactivity is the signal in a displacement assay; it reports binding, not function.
The target of experiment [1] is T1, rP2Y12R (Rattus norvegicus, UniProt Q9EPX4). Kind of experiment: radioligand saturation binding, HEK […] membranes.
Experiment [2] addresses T1, rP2Y12R. Kind of experiment: radioligand displacement of [3H]AZ12464237. It is filed as binding.

A word on the Ki: it is a measure of affinity in units of concentration, obtained from inhibition or displacement. Read a high Ki as a looser hold on the target. As a reminder, the Kd is the constant that tells how readily two partners part at equilibrium.

Structures can show the parent of a compound that is named as a salt.

T1 sequence (Q9EPX4 whole entry): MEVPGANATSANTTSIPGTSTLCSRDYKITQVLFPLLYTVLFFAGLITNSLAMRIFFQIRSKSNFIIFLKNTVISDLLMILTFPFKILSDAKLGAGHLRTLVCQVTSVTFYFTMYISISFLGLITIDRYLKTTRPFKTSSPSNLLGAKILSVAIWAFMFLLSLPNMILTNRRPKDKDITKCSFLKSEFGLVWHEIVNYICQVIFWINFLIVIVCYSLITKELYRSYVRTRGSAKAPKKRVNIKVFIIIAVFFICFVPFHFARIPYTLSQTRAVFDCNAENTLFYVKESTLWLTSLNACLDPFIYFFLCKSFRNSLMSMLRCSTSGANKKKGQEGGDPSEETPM
hP2Y12R, sequence (Q9H244 whole entry): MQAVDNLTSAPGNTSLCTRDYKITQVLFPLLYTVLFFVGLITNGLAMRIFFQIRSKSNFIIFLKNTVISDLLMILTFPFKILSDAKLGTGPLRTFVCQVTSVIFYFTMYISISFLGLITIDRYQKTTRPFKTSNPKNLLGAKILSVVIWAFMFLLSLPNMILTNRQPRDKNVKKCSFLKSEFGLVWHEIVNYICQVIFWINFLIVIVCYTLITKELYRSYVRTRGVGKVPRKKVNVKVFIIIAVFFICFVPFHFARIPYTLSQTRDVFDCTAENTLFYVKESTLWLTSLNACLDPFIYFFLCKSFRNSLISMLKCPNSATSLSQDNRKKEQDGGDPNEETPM

For `CSc1nc(N)c2ncn([C@@H]3O[C@H](COP(=O)(O)OP(=O)(O)O)[C@@H](O)[C@H]3O)c2n1` [2MeSADP, 2-methylthio-adenosine-5’-diphosphate], the Ki on hP2Y12R stood at 18.9 ± 2.61 nM.

With `CCOC(=O)c1cc(C#N)c(N2CC(NC(=O)NS(=O)(=O)c3ccc(Cl)s3)C2)nc1C` [AZ12464237, Ethyl 6-(3-(3-((5-chlorothiophen-2-yl)sulfonyl)ureido)azetidin-1-yl)-5-cyano-2-methylnicotinate], the Kd on rP2Y12R [1] was 16.6 ± 3.37 nM.

Regarding `CCOC(=O)c1cc(C#N)c(N2CCC(C(=O)NS(=O)(=O)Cc3ccccc3)CC2)nc1C` [AZD1283, Ethyl 5-cyano-2-methyl-6-[4-[[[(phenylmethyl)sulfonyl]amino]carbonyl]-1-piperidinyl]-3-pyridinecarboxylate], the affinity at hP2Y12R corresponds to a Ki of 2.66 ± 0.6 nM.

On to `Cc1nc(N=Nc2cc([N+](=O)[O-])ccc2Cl)c(COP(=O)(O)O)c(C=O)c1O` [MRS2211, 2-[(2-chloro-5-nitrophenyl)azo]-5-hydroxy-6-methyl-3-[(phosphonooxy)methyl]-4-pyridinecarboxaldehyde disodium salt], for which the affinity at hP2Y12R, expressed as Ki, was 3240 ± 1850 nM.

Regarding `S=C=Nc1cccc(NC(=S)NCCCCNC(=S)Nc2cccc(N=C=S)c2)c1` [MRS2578], the Ki at hP2Y12R is more than 100000 nM.

At hP2Y12R, `O=C(O)c1cc(-c2ccc(C3CCNCC3)cc2)c2ccc(-c3ccc(C(F)(F)F)cc3)cc2c1` [PPTN·HCl, 4-[4-(4-piperidinyl)phenyl]-7-[4-(trifluoromethyl)phenyl]-2-naphthalenecarboxylic acid hydrochloride] came in with a Ki of more than 10000 nM.

Turning to `Nc1c(S(=O)(=O)O)cc(Nc2ccc(Nc3ccccc3)c(S(=O)(=O)O)c2)c2c1C(=O)c1ccccc1C2=O` [PSB0739], the Ki at hP2Y12R came out at 25.6 ± 3.05 nM.

`CNc1cc2[nH]c(=O)n(-c3ccc(NC(=O)NS(=O)(=O)c4ccc(Cl)s4)cc3)c(=O)c2cc1F` [elinogrel, 5-chloro-N-[[[4-[6-Fluoro-1,4-dihydro-7-(methylamino)-2,4-dioxo-3(2H)-quinazolinyl]phenyl]amino]carbonyl]-2-thiophenesulfonamide]: the Ki at rP2Y12R [2] stood at 55 ± 14.3 nM; at hP2Y12R, 7 ± 0.54 nM.

Consider `CCCSc1nc(N[C@@H]2C[C@H]2c2ccc(F)c(F)c2)c2nnn([C@@H]3C[C@H](OCCO)[C@@H](O)[C@H]3O)c2n1` [ticagrelor], for which the Ki on rP2Y12R [2] was 48.8 ± 15.2 nM; at hP2Y12R, 20.1 ± 0.25 nM.

The values above are taken from doi:10.1101/2024.10.10.617599v1 (biorxiv, 2024).
